# Test results reported in ChEMBL document CHEMBL1125353, “Structure-activity studies on benzhydrol-containing nipecotic acid and guvacine derivatives as potent, orally-active inhibitors of GABA uptake” (J Med Chem, 1992).
# pIC50: −log10 of the molar value.
# Test system: Mus musculus
# Assay: Potency inhibiting tonic extensor seizures from low-intensity corneal electroshock in mice following peroral administration.
# Assay type: functional
# Conditions: not given
row,Compound,ED50 [mg/kg]
1,Cl.O=C(O)C1=CCCN(CCOC(c2ccc(C(F)(F)F)cc2)c2ccc(C(F)(F)F)cc2)C1,1

# Test system: Mus musculus
# Assay: Potency of the inhibiting ataxia in mice following peroral administration.
# Assay type: functional
# Conditions: not given
row,Compound,ED50 [mg/kg]
1,Cl.O=C(O)C1=CCCN(CCOC(c2ccc(C(F)(F)F)cc2)c2ccc(C(F)(F)F)cc2)C1,64

# Organism: Rattus norvegicus
# Assay: In vitro Inhibitory activity against GABA uptake
# Assay type: functional
# Conditions: not given
row,Compound,pIC50
1,O=C(O)[C@@H]1CCCNC1 [(R)-NIPECOTIC ACID],5.28

# Organism: Rattus norvegicus
# Assay: In vitro inhibition of [3H]GABA uptake in rat Hippocampal slices.
# Assay type: functional, organism-based
# Conditions: not given
row,Compound,pIC50
1,O=C(O)[C@H]1CCCN(CCOC(c2ccc(Cl)cc2)c2ccc(Cl)cc2)C1 (stereo in doubt; 36),4.85
2,O=C(O)[C@H]1CCCN(CCOC(c2ccc(Cl)cc2)c2ccc(Cl)cc2)C1 (stereo in doubt; 37),6.74

# Same assay, conditions: Rattus norvegicus, 3 h
row,Compound,pIC50
1,O=C(O)C1CCCN(CCCOC(c2ccccc2)c2ccccc2)C1 (stereo not given),4.92
2,O=C(O)[C@H]1CCCNC1 [(S)-NIPECOTIC ACID],4.26
3,Cl.O=C(O)C1CCCN(CCOC(c2ccc(Cl)cc2)c2ccc(Cl)cc2)C1 (stereo not given),6.39
4,CNC(=O)C1CCCN(CCOC(c2ccc(Cl)cc2)c2ccc(Cl)cc2)C1 (stereo not given),4.40
5,O=C(CCCN1CCCC(C(=O)O)C1)c1ccc(F)cc1 (stereo not given),< 4.30
6,O=C(O)C1CCCN(CCOC(c2ccc(Cl)cc2)c2cccs2)C1 (stereo not given),5.44
7,O=C(O)C1CCCN(CCOC(c2ccc(F)cc2)c2ccc(F)cc2)C1 (stereo not given),5.11
8,O=C(O)C1CCN(CCOC(c2ccc(Cl)cc2)c2ccc(Cl)cc2)C1 (stereo not given),< 4.30
9,O=C1CCCN1CCOC(c1ccc(Cl)cc1)c1ccc(Cl)cc1,4.59
10,O=C(O)C1CCCN(CCSC(c2ccccc2)c2ccccc2)C1 (stereo not given),4.22
11,O=C(O)C1CCCN(CCOC(c2ccccc2)c2ccc(Cl)c(Cl)c2)C1 (stereo not given),5.92
12,N#CC1CCCN(CCOC(c2ccc(Cl)cc2)c2ccc(Cl)cc2)C1 (stereo not given),< 4.30
13,O=C(O)[C@H]1CN(CCOC(c2ccc(Cl)cc2)c2ccc(Cl)cc2)CC[C@H]1O,5.82
14,O=C(O)[C@@H]1CCCNC1 [(R)-NIPECOTIC ACID],5.28
15,NC(=O)N1c2ccccc2C=Cc2ccccc21 [CARBAMAZEPINE],< 4.30
16,Cc1cc(Cl)ccc1C(OCCN1CCCC(C(=O)O)C1)c1ccc(Cl)cc1C (stereo not given),5.49
17,O=C(O)C1CCCN(CCOC(c2ccccc2)c2ccc(Cl)cc2)C1 (stereo not given),4.70
18,CCOC(=O)C1CCCN(CCOC(c2ccc(Cl)cc2)c2ccc(Cl)cc2)C1 (stereo not given),4.96
19,O=C(O)C1CCCN(CCCOC(c2ccccc2)(c2ccccc2)c2ccccc2)C1 (stereo not given),5.10
20,O=C(O)C1=CCCNC1 [GUVACINE],5.14
21,O=C(O)C1CCCN(CCC2CC2(c2ccccc2)c2ccccc2)C1 (stereo not given),< 4.30
22,CC(=O)C1CCCN(CCOC(c2ccc(Cl)cc2)c2ccc(Cl)cc2)C1 (stereo not given),4.66
23,COC(=O)C1=CCCN(CCOC(c2ccc(C(F)(F)F)cc2)c2ccc(C(F)(F)F)cc2)C1,4.40
24,O=C(O)C1CCCN(CCOC(c2ccc(Cl)cc2)c2ccc(Cl)c(C(F)(F)F)c2)C1 (stereo not given),5.85
25,O=C(O)C1CCCN(CCOC2c3ccc(Cl)cc3CCc3cc(Cl)ccc32)C1 (stereo not given),5.80

row,Compound,pIC50
1,O=C(O)C1CCCN(CC(=O)C(c2ccccc2)c2ccccc2)C1 (stereo not given),< 4.30
2,Cl.O=C(O)C1=CCCN(CCOC(c2ccc(C(F)(F)F)cc2)c2ccc(C(F)(F)F)cc2)C1,6.47
3,Cc1ccc(C(OCCN2CCCC(C(=O)O)C2)c2ccc(C)cc2)cc1 (stereo not given),5.24
4,Clc1ccc(C(OCCN2CCCCC2)c2ccc(Cl)cc2)cc1,4.68
5,O=C(O)CC1CCN(CCOC(c2ccc(Cl)cc2)c2ccc(Cl)cc2)C1 (stereo not given),5.57
6,CN(C)C(=O)C1CCCN(CCOC(c2ccc(Cl)cc2)c2ccc(Cl)cc2)C1 (stereo not given),4.60
7,O=C(O)C1CCCN(CCC=C(c2ccccc2)c2ccccc2)C1 (stereo not given),5.00
8,NC(=O)C1CCCN(CCOC(c2ccc(Cl)cc2)c2ccc(Cl)cc2)C1 (stereo not given),4.46
9,Cl.O=C(O)C1=CCCN(CCOC(c2ccc(Cl)cc2)c2ccc(Cl)cc2)C1,6.39
10,O=C(O)C1CCCN(CCOC(c2ccc(Cl)cc2)c2ccco2)C1 (stereo not given),5.06
11,O=C(O)C1CCCN(CCOC(c2ccc(Cl)c(Cl)c2)c2ccc(Cl)c(Cl)c2)C1 (stereo not given),5.60
12,O=C(O)C1CCCN(CCc2oc3ccccc3c2-c2ccccc2)C1 (stereo not given),4.66
13,O=C(O)C1CCCN(CCOC(c2ccc(Cl)c(Cl)c2)C2CCCCC2)C1 (stereo not given),5.96
14,O=C(O)C1CCCN(CCC(Cc2ccccc2)c2ccccc2)C1 (stereo not given),4.30
15,O=C(O)C1CCCN(CCOC2c3ccccc3C=Cc3ccccc32)C1 (stereo not given),5.60
16,CCCC(CCC)C(=O)O [VALPROIC ACID],< 4.30
17,COC(=O)C1CCCN(CCOC(c2ccc(Cl)cc2)c2ccc(Cl)cc2)C1 (stereo not given),6.15
18,O=C1NC(=O)C(c2ccccc2)(c2ccccc2)N1 [PHENYTOIN],< 4.30
19,OCC1CCCN(CCOC(c2ccc(Cl)cc2)c2ccc(Cl)cc2)C1 (stereo not given),4.33
20,O=C(O)C1CCN(CCOC(c2ccc(Cl)cc2)c2ccc(Cl)cc2)CC1,< 4.30
21,O=C(O)[C@H]1CN(CCOC(c2ccc(Cl)cc2)c2ccc(Cl)cc2)CC[C@@H]1O,5.92
22,O=C(O)C1CCCN(CCOC(c2ccc(OC(F)(F)F)cc2)c2ccc(OC(F)(F)F)cc2)C1 (stereo not given),6.04
23,O=C(O)C1CCCN(CCOC(c2ccc(C(F)(F)F)cc2)c2ccc(C(F)(F)F)cc2)C1 (stereo not given),6.15
24,O=C(O)C1CCCN(CCOC(c2ccccc2)c2ccccc2)C1 (stereo not given),5.47

# Molecular target: Sodium channel alpha subunits; brain (Types I, II, III) (Rattus norvegicus, UniProt P04775+P04774+P08104)
# Assay: Inhibition of veratridine-stimulated [14C]- guanidine influx into rat cortical slice
# Assay type: functional
# Conditions: not given
row,Compound,IC50 [µM]
1,Cl.O=C(O)C1=CCCN(CCOC(c2ccc(C(F)(F)F)cc2)c2ccc(C(F)(F)F)cc2)C1,10

# Test system: Rattus norvegicus
# Assay: Anticonvulsant activity against kindled rats was determined after ip administration
# Assay type: functional
# Conditions: not given
row,Compound,ED50 [mg/kg]
1,Cl.O=C(O)C1CCCN(CCOC(c2ccc(Cl)cc2)c2ccc(Cl)cc2)C1 (stereo not given),25
2,Cl.O=C(O)C1=CCCN(CCOC(c2ccc(Cl)cc2)c2ccc(Cl)cc2)C1,14

# Organism: Rattus norvegicus
# Assay: Potency inhibiting focal seizures in rat hippocampus preventing hippocampal after discharges
# Assay type: functional
# Conditions: not given
row,Compound,ED50 [mg/kg]
1,Cl.O=C(O)C1=CCCN(CCOC(c2ccc(C(F)(F)F)cc2)c2ccc(C(F)(F)F)cc2)C1,2.6

# Test system: Rodentia sp.
# Assay: Potency inhibiting clonic seizures induced by GABA antagonist pentylene tetrazole(PTZ) in rodents following oral administration.
# Assay type: functional
# Conditions: not given
row,Compound,ED50 [mg/kg]
1,Cl.O=C(O)C1=CCCN(CCOC(c2ccc(C(F)(F)F)cc2)c2ccc(C(F)(F)F)cc2)C1,0.4

# Test system: Rodentia sp.
# Assay: Inhibitory potency against threshold clonic seizures induced by ip picrotoxin in rodents
# Assay type: functional
# Conditions: not given
row,Compound,Ataxia [%]
1,Cl.O=C(O)C1=CCCN(CCOC(c2ccc(C(F)(F)F)cc2)c2ccc(C(F)(F)F)cc2)C1,1.7
